Reference: patent US20240108634A1, “COMPOSITIONS AND METHODS FOR INHIBITING YAP” (The United States Government as represented by the …, priority 2021, published 2024)

Columns and labels:
full-length human YAP1 = biological target: T1, full-length human YAP1 (Homo sapiens, UniProt P46937); test: Inhibitor-coupled bead binding of recombinant HA-tagged YAP; conditions: immunoblot of bound HA-YAP
T1 construct: purified recombinant HA-tagged full-length human YAP1; made in house
Experimental: FIGS. 1A-G show the identification of a YAP1-TEAD1 binding interface inhibitor. […] The Gal4 DBD was fused to residues 50-171 of human YAP1 and the Gal4 AD was fused to residues 194-411 of human TEAD1. These fusions were expressed in yeast containing reporters harboring Gal4 upstream activating sequences (UAS). […] Yeast expressing either p53-DBD and SV40 large T antigen-AD fusions or YAP1-DBD and TEAD1-AD fusions were plated on selective media. Compounds were pinned onto the plate surfaces by robotic transfer and subsequently examined for halo formation (indicated by red circles). […] Pull-down products were analyzed by SDS-PAGE and silver staining. […] Raw binding sensorgrams obtained at each concentration were fitted to a 1:1 binding model and Kon, Koff and KD were calculated by simultaneous non-linear regression analyses.
Protein and mRNA analyses, immunoprecipitation, in vitro bead-coupled inhibitor binding assays and HPLC analyses. […] Antigen-antibody complexes were detected using appropriate horseradish peroxidase-conjugated secondary antibodies (GE Healthcare) and enhanced chemiluminescence (Amersham ECL Prime). […] For quantitative RT-PCR, extraction of RNA was performed using Trizol® (Life Technologies). Total RNA was then quantified and integrity assessed using an Agilent 2100 Bioanalyzer (Agilent Technology). […]

YAP-TEAD interaction = biological target: T2, YAP-TEAD interaction (Homo sapiens, UniProt P46937); test: Co-immunoprecipitation of myc-TEAD with HA-YAP from treated LN229 cells; assay type: cell-based; conditions: LN229 cells, 24 h
T2 construct: expressed in transfected cells; host or cells: LN229
Experimental: FIGS. 1A-G show the identification of a YAP1-TEAD1 binding interface inhibitor. […] The Gal4 DBD was fused to residues 50-171 of human YAP1 and the Gal4 AD was fused to residues 194-411 of human TEAD1. These fusions were expressed in yeast containing reporters harboring Gal4 upstream activating sequences (UAS). […] Yeast expressing either p53-DBD and SV40 large T antigen-AD fusions or YAP1-DBD and TEAD1-AD fusions were plated on selective media. Compounds were pinned onto the plate surfaces by robotic transfer and subsequently examined for halo formation (indicated by red circles). Compounds inhibiting YAP1-TEAD1 mediated growth on selective media while having no effect on p53-T antigen mediated yeast growth were considered specific. Compounds which blocked the growth of both strains were considered nonspecific and were classified as having general antifungal properties. […] His-tagged YAP (amino acids 50-171 of Accession No. NP_006097) was used in a GST pull-down assay using GST-TEAD (amino acids 194-411 of Accession No. NP_068780) immobilized on glutathione resin. Pull-down products were analyzed by SDS-PAGE and silver staining. […] Cells treated with antimycin A are shown as a negative control. […] Raw binding sensorgrams obtained at each concentration were fitted to a 1:1 binding model and Kon, Koff and KD were calculated by simultaneous non-linear regression analyses.
Protein and mRNA analyses, immunoprecipitation, in vitro bead-coupled inhibitor binding assays and HPLC analyses. […] Antigen-antibody complexes were detected using appropriate horseradish peroxidase-conjugated secondary antibodies (GE Healthcare) and enhanced chemiluminescence (Amersham ECL Prime). […] For quantitative RT-PCR, extraction of RNA was performed using Trizol® (Life Technologies). Total RNA was then quantified and integrity assessed using an Agilent 2100 Bioanalyzer (Agilent Technology). […] SYBR® Green quantitative PCR (Millipore Sigma) was performed in triplicate in 96-well optical plates on an ABI Prism 7000 Sequence Detection System (Life Technologies) according to the manufacturer's instructions. […]

T2 sequence (P46937 whole entry): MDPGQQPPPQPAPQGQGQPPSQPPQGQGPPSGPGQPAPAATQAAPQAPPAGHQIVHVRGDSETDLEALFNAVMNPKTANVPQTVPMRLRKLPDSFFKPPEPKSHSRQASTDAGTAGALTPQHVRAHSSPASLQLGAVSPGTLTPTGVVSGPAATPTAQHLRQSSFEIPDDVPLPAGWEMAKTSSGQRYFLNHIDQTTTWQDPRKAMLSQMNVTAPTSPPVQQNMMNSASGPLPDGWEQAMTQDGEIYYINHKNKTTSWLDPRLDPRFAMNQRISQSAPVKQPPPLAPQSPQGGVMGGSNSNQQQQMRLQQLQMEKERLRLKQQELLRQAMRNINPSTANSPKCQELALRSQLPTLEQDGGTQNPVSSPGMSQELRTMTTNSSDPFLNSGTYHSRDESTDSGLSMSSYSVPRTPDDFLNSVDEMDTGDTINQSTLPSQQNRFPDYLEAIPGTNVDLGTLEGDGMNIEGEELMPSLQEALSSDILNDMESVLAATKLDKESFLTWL
T1 sequence (P46937 whole entry): as above

Binding of YAP to compound-coupled beads (full-length human YAP1) | Compound | Cell treatment concentration required for observable blockade of the interaction (YAP-TEAD interaction) | Inhibition of HA-YAP/myc-TEAD interaction at equimolar concentrations (YAP-TEAD interaction; equimolar to NSC682769)
no significant binding | COc1ccc(CN2C(=O)c3ccccc3C2=O)c(OC)c1 [IRES-J007, reference compound] | – | –
– | verteporfin | 4 µM | ineffective
